Square brackets hold non-standard residues; d marks the D form. Ends that are not written are not given here.
Legend:
[1] = tested on: EGFR ligands EGF, TGFα, and cetuximab; assay: Combinatorial CX7C phage library screening on EGFR ligands; consensus motifs (Table 1); type: binding; details: EGFR ligand(s) on which the overlapping consensus motif was selected
Method: Phage peptide screening and binding assays were performed as described (Cardó-Vila et al., 2003). A random phage peptide library displaying the insert CX7C (where X is any amino acid and C is a cysteine residue) was used for the screening; phage input was 3×10^9 transducing units (TU). Antibodies, EGF, or TGF-α (R&D Systems) were coated onto microtiter wells as described (Smith and Scott, 1993). […] Wells were washed twice with PBS, blocked with PBS containing 3% BSA for 1 hr at room temperature (RT), and incubated with the phage library in 50 μl PBS containing 1.5% BSA. After 2 hr at RT, wells were washed ten times with PBS, and phage were recovered by bacterial infection as described (Smith and Scott, 1993; Giordano et al., 2001; Cardó-Vila et al., 2003). […] Purification of phage particles and sequencing of phage single-stranded (ss) DNA were performed as described (Arap et al., 1998; Pasqualini et al., 2001). Phage ssDNA from 96 individual clones from each of the second, third, and fourth rounds of selection were prepared, and inserts were sequenced.
Peptide-matching software (Mandava et al., 2004) was used to identify motifs resembling targeted ligands. To identify motifs resembling targeted ligands among the selected sequences, the inventors used a peptide-matching software program based on RELIC, an established bioinformatics server for combinatorial peptide analysis and identification of protein-ligand interaction sites (Mandava et al., 2004), designed and implemented through Perl 5.8.1. The program calculates similarity based on a pre-defined amino acid window size (defined empirically and experimentally) between an affinity-selected peptide sequence and the target protein sequence from N-terminus to C-terminus in one-residue shifts to fit the best alignment. The peptide-protein similarity scores for each amino acid residue were calculated based on an amino acid substitution matrix modified to adjust for rare residue representation. In this case, similarity scores were calculated based on a 5-residue window, with every pentamer motif in each selected peptide compared to each pentamer segment of the protein. Empirical similarity score thresholds were set with at least three identical residues plus one similar residue between the peptide and the protein segment.
A combinatorial approach was used to identify consensus protein-interacting sites within the EGFR. […] Serial enrichment in all selections was observed (FIGS. 1A-C). Bovine serum albumin (BSA), VEGF, and irrelevant IgG served as negative controls.
A comprehensive protein similarity analysis of selected peptides (n=384) was performed to identify sequences resembling the extracellular domain of the EGFR. Overlapping consensus motifs selected in all three EGFR ligands were identified, mapped, and consolidated within the five dominant candidate regions (Cys227-Cys240, Cys283-Asp290, Cys486-Cys491, Cys547-Cys567, Cys604-Lys618; not accounting for the signal peptide, as indicated) within the primary structure of the receptor (FIG. 2A, yellow highlights).

[2] = tested on: EGFR; assay: EGF-induced EGFR autophosphorylation (immunoprecipitation, anti-phosphotyrosine blot); type: cell-based, human; details: HN5 tumor cells, EGF 15 min, FIG. 4E
Excerpt: (§1) A representative experiment is depicted. […] Bars represent mean±SEM. […] (FIG. 4C) Effect of the synthetic peptides on HN5 tumor cells. […] Viability in the absence of peptide was set to 100%. […] Bars represent mean±SEM. […] Receptors were immunoprecipitated with antibodies against phosphorylated (p) pEGFR and were immunoblotted with anti-phosphotyrosine IgG.

[3] = tested on: EF43.fgf-4-derived tumors; assay: Treatment of tumor-bearing mice with peptides and peptidomimetics, tumor volume; type: in vivo; details: Balb/c mice, EF43.fgf-4 tumors, 750 μg/mouse/dose
Excerpt: FIGS. 5A-B: CVRAC-targeted phage homes to tumor. (FIG. 5A) Targeting tumors versus control organs. […] An anti-phage antibody was used for staining H&E staining, with the corresponding fluorescence-based immunostaining, are shown in tumors (FIG. 5A). Tumor-bearing mice received CVRAC phage, CVAAC phage, or insertless control phage as indicated. Cohorts of tumor-bearing mice (n=5 mice/group) were used. A representative experiment is shown. Scale bar, 100 μm. (FIG. 5B) Treatment of tumor-bearing mice with peptides and peptidomimetics. Balb/c mice bearing EF43.fgf-4-derived tumors were divided into size-matched cohorts (n=7 mice/group); individual tumor volumes are represented before (black circles) and after (white circles). Peptides and peptidomimetics were administered at 750 μg/mouse/dose for 5 days. Shown are mean tumor volumes±SEM.
Selective phage homing to tumors was evaluated as described (Hajitou et al., 2006; Arap et al., 1998). […] Each cohort of mice (n=3 per experiment) with size-matched tumors received a set of test and control phage clones. After 6 h, tumor-bearing mice were perfused through the heart with 20 ml of PBS containing 4% paraformaldehyde (PFA). […] For experimental therapy, Balb/c mice bearing EF43.fgf-4-derived tumors were established, and tumor volumes were determined as described (Arap et al., 1998; Hajitou et al., 2006; Ciardiello et al., 1999). […]

[4] = tested on: HN5 tumor cells; assay: Cell viability/proliferation, MTT assay, HN5; type: cell-based, human; design: cell proliferation / viability: dose or concentration left out as unconfirmed; details: HN5, MTT, 120 h, increasing concentrations, FIG. 4C
Method: as §1
(§2) Tumor cell lines HN5, UMSCC 10A, GEO and EF43.fgf-4 were culture in standard conditions. Viability was assessed by MTT assays (Sigma) as described (Cardó-Vila et al., 2003). […] Samples were read at 570 nm.
Tumor cell lines HN5, UMSCC 10A, GEO and EF43.fgf-4 were maintained in high-glucose DMEM, supplemented with 10% heat-inactivated fetal bovine serum, 20 mM HEPES (pH 7.4), 100 IU/ml penicillin, 100 μg/ml streptomycin, and 4 mM glutamine at 5% CO2 at 37° C. EF43.fgf-4 were grown in G418 as described (Hajitou et al., 2006).

[5] = Nuclear magnetic resonance (NMR)-spectroscopy interactions; type: binding
[6] = tested on: cetuximab; assay: Binding of synthetic peptides to cetuximab (ELISA-based, FIG. 3A, FIG. 4B); details: FIG. 4B (peptides plated at 10 μg/ml)
Excerpt: (§3) BSA served as an additional negative control, and the EGFR, as a positive control. […] Insertless phage served as a negative control. […] Bars represent mean±SEM.
as §1
(§4) The EGFR served as an immobilized positive control, and BSA or control peptides (CVAAC) served as immobilized negative controls.

[7] = tested on: polyclonal anti-CVRAC antibodies; assay: ELISA recognition of peptides by polyclonal anti-CVRAC antibodies (FIG. 4B); type: binding, rabbit
Excerpt: as §1
Rabbits were immunized with KLH-conjugated CVRAC and a purified antibody was obtained. […] The capacity of rabbit IgG against CVRAC to recognize CVRAC, D(CARVC), and EGFR was measured by ELISA.
as §4

[8] = tested on: GEO tumor cells; assay: Inhibition by peptide of the cetuximab-dependent inhibition of proliferation, GEO; type: cell-based, human; details: with cetuximab
Method: as §2

[9] = tested on: HN5 tumor cells; assay: Inhibition by peptide of the cetuximab-dependent inhibition of proliferation, HN5; type: cell-based, human; details: HN5, with cetuximab; 60 μM or 180 μM CVRAC, FIG. 4A
Method: as §1, §2

[10] = tested on: binding of cetuximab to the EGFR; assay: ELISA inhibition of binding of cetuximab to the EGFR by synthetic peptides (FIG. 3B, FIGS. 7A-C); details: for inhibition of binding of cetuximab to the EGFR: ELISA, FIG. 3B; for initial functional screen of consensus motif panel (n=15) with cetuximab: FIGS. 7A-C
Excerpt: as §3
Similar methodologies have been applied to therapeutic (Binder et al., 2006; Binder et al., 2007; Riemer et al., 2005) or diagnostic (Jaalouk et al., 2007) antibodies in a strategy that could reveal mechanisms of action (Binder et al., 2007), identify biological reagents for immunization (Riemer et al., 2005), or discover unrecognized antigens (Jaalouk et al., 2007).

Substance | Selected on [1] | other results
CTGRGPDNCIQ [synthetic EGFR-mimicking peptide] | All EGFR ligands | 
PNGSCW [synthetic EGFR-mimicking peptide] | Cetuximab | 
CRKFRDEATC [synthetic EGFR-mimicking peptide] | All EGFR ligands | 
D(CAAVC) ([dC][dA][dA][dV][dC]; cysteine pairing not given here; also: peptidomimetic) [negative control peptidomimetic with a mutation corresponding to EGFR Arg285Ala, reference compound] |  | EGF-induced tyrosine phosphorylation of the EGFR [2]: not
CKDTC [synthetic EGFR-mimicking peptide] | All EGFR ligands | 
QRNYDLSFL [synthetic EGFR-mimicking peptide] | EGF & TGFα | 
CQKCDPSC | Cetuximab & TGFα | 
IIRGRTK [synthetic EGFR-mimicking peptide] | EGF & TGFα | 
CLPQAMNIT [synthetic EGFR-mimicking peptide] | Cetuximab | 
CVRAC [synthetic cyclic peptide, EGFR residues 283-287] |  | therapeutic efficacy, tumor growth [3]: showed therapeutic efficacy in vivo; cell proliferation / viability [4]: proliferated much less; interactions by NMR-spectroscopy [5]: Low-affinity interactions (micromolar range); binding of synthetic peptide to cetuximab [6]: specifically bind to cetuximab; recognition by polyclonal anti-CVRAC antibodies [7]: recognized; inhibition of the antibody-dependent inhibition of proliferation [8]: concentration-dependent inhibition; inhibition of the antibody-dependent inhibition of proliferation [9]: concentration-dependent inhibition; inhibition of binding of cetuximab to the EGFR [10]: Concentration-dependent inhibition; initial functional screen of consensus motif panel (n=15) with cetuximab [10]: not significantly different
THTPPLDPQEL [synthetic EGFR-mimicking peptide] | EGF & TGFα | 
CSPEGC (also: cyclic, ring type not given here) [synthetic EGFR-mimicking peptide] | All EGFR ligands | 
CTGPGLEGCPTNGPK [synthetic EGFR-mimicking peptide] | All EGFR ligands | 
CVRACGAD (not fully specified (bridges); also: cyclic, ring type and places not given here) [synthetic cyclic peptide, EGFR residues 283-290] | All EGFR ligands | binding of synthetic peptide to cetuximab [6]: specifically bind to cetuximab; inhibition of binding of cetuximab to the EGFR [10]: Concentration-dependent inhibition; initial functional screen of consensus motif panel (n=15) with cetuximab [10]: best concentration-dependent ligand peptide
CPAGVM [synthetic EGFR-mimicking peptide] | Cetuximab | 
AQQCSGRCRGKSPSD [synthetic EGFR-mimicking peptide] | EGF & TGFα | 
IQCAHYIDGPHC [synthetic EGFR-mimicking peptide] | All EGFR ligands | 

From patent US20130059793A1, “EGF RECEPTOR MIMICKING PEPTIDES” (BOARD OF REGENTS, THE UNIVERSITY OF TEXAS SYSTEM, priority 2010, published 2013)
